Patent publication US20260337187A1, “COMPOUNDS FOR TREATMENT OF INFLAMMATORY PROCESSES” (THORNE LIMITED, priority 2022, published 2026)

Experiments:
Type in all cases: cell-based
SWAP-70 = test: FACS-FRET of SWAP-70 dimerization in living cells
Protocol: B2 was added to the cells 15 minutes prior to stimulation.
(§1) FACS-FRET of SWAP-70 in living cells: The method was in line with that previously described by Betaneli and Jessberger (2020). Briefly, two versions of SWAP-70, differently tagged with the fluorescent dyes Cerulean and Venus, were stably expressed in 293T cells. Upon activation of the cells, e.g., by sodium vanadate, SWAP-70 dimerizes. Thereby the two fluorophores associate and generate a fluorescence resonance energy transfer (FRET) signal, which is measured by FACS. FACS-FRET allows to analyze large numbers of cells simultaneously.
as §1, with “Two” for “FACS-FRET of SWAP-70 in living cells: The method was in line with that previously described by Betaneli and Jessberger (2020). Briefly, two”, “simultaneously. […] B2 was added to the cells 15 minutes prior to stimulation.” for “simultaneously.”

[1] = test system: human primary eosinophils; test: Eosinophil ROS production (PMA triggered, DHR-123, FACS); details: FIG. 7 (100, 50, 25 μM)
Protocol: The effect of 3 different concentrations (from right to left: 100, 50 and 25 μM) of B2 is shown in comparison to control (far left) and ROS triggered control (PMA; second from left); average of 3 experiments.
Eosinophil ROS production: Human primary eosinophils were purified from buffy coat, firstly by density gradient centrifugation on ficoll to isolate total peripheral blood mononuclear cell (PBMC), and then by negative selection using the eosinophil purification kit from Miltenyi Inc. as per manufacturer's instructions. The eosinophils were then resuspended in pre-warmed tissue culture media, which had been left in the incubator overnight to equilibrate, containing 25 μM dihydrorhodamine 123 (DHR-123) at a cell density of 1×10^6 cells/ml. The cells were then stimulated with phorbol 12-myristate 13-actetate (PMA) at a concentration of 1 μM in the presence or absence of B2 or DMSO for control in the incubator for 20 minutes and then immediately put on ice to stop the reaction. Levels of the oxidized DHR in the samples were measured by flow cytometry as described above in relation to neutrophil ROS production.
To investigate inhibition of eosinophil ROS production by B2, human primary eosinophils, isolated from fresh blood samples, were triggered to produce ROS by treatment with PMA, and ROS measured by FACS based on the conversion of dihydrorhodamine 123 to rhodamine 123 (FIG. 7).

[2] = test system: human primary neutrophils; test: Neutrophil ROS production (fMLP triggered, DHR-123, FACS)
Protocol: The effect of 4 different concentrations (from left to right: 100, 50, 20 and 10 μM) of B2 is shown. Each symbol represents one experiment.
Neutrophil ROS production: Neutrophil reactive oxygen species (ROS) production was measured on human primary neutrophils, isolated from fresh blood samples using the MACSexpress™ neutrophil kit as described in the manufacturer's instructions (Miltenyi Biotec Inc.). Neutrophils in RPMI containing 50 μm dihydrorhodamine 123 (DHR-123) were triggered to produce ROS by treatment with 20 μm bacterial peptide N-formylmethionyl-leucyl-phenylalanine (fMLP) as a physiologically relevant stimulant. ROS were measured by FACS based on the conversion of DHR-123 to Rhodamine-123.
To investigate the effect of neutrophil ROS production by B2, human primary neutrophils, isolated from fresh blood samples, were triggered to produce reactive oxygen species (ROS) by treatment with the bacterial peptide N-formylmethionyl-leucyl-phenylalanine (fMLP) as a physiologically relevant stimulant and ROS were measured by FACS based on the conversion of dihydrorhodamine 123 to rhodamine 123. The effect of 4 different concentrations of B2 is shown (FIG. 2).

[3] = test system: human primary neutrophils; test: Neutrophil NETosis (PMA or pyocyanin triggered, extracellular DNA, Sytox Green); details: 3 hours (FIG. 3)
Protocol: The effect of 3 different concentrations (from left to right for each treatment: 100, 50 and 20 μM) of B2 is shown as % reduction compared to untreated control; average of 3 experiments.
Neutrophil NETosis: Neutrophil production of extracellular traps, NETosis, was measured on human primary neutrophils, isolated from fresh blood samples as described above or by Pancoll gradient centrifugation. Neutrophils in RPMI at 4×10^6 cells/ml were triggered to undergo NETosis in wells of a 96-well plate at a total cell number of 2×10^5 cells per well. The cells were treated for 3 hours with either the […] phorbol myristate acetate (100 nM PMA) or the bacterial product pyocyanin (at 10 μM). Extracellular DNA was measured by fluorometry using the dye Sytox™ Green and/or by fluorescence microscopy.
To investigate the effect of B2 on neutrophil NETosis, human primary neutrophils, isolated from fresh blood samples, were triggered to undergo NETosis (the expulsion of DNA in the environment) by treatment for 3 hours with either the […] phorbol myristate acetate (PMA) or the bacterial product pyocyanin. Extracellular DNA was measured by photometry using the dye Sytox™ Green.

primary human B cells = test: B lymphocyte IgE production (frequency of IgE+ B lymphocytes by FACS)
Protocol: B2 was applied at 3 different concentrations, from left to right: 50, 20 and 10 μM. Average of >10 experiments is shown.
B lymphocyte IgE production: B lymphocyte IgE production was measured in line with that previously described by Audzevich et al. (2013). Briefly, primary human B cells isolated by the MACSxpress Buffy Coat Pan B Cell Isolation Kit (Miltenyi Biotec) from buffy coat were stimulated for 6 days by recombinant hCD40L (100 μg/ml) and IL-4 (50 ng/ml) at a cell density of 5×10^4 cells/ml. The frequency of IgE+B lymphocytes was determined by FACS at day 6 using anti CD19 and anti IgE antibodies.
To investigate inhibition of B lymphocyte IgE production by B2, the frequency of IgE+B lymphocytes was determined by FACS at day 6 of primary human B cell cultures isolated from fresh buffy coat and stimulated by CD40L and IL4.

Cc1onc(-c2ccccc2Cl)c1C(=O)Nc1nc2ccc([N+](=O)[O-])cc2s1 [B2, 3-(2-chlorophenyl)-5-methyl-N-(6-nitrobenzo[d]thiazol-2-yl)isoxazole-4-carboxamide] was tested. Which “FACS-FRET signal, SWAP-70 dimerization at earlier time intervals” value (SWAP-70; 50 μM B2, 5-10 and 10-15 minutes after stimulation, B2 added 15 minutes prior) did it give?
The value was “inhibition by 50 μM B2 at earlier time intervals”.

And the “FACS-FRET signal (FRET efficiency), SWAP-70 dimerization” value (SWAP-70; 50, 25 and 10 μM B2, 20 minutes after stimulation, B2 added 15 minutes prior)?
The value was “inhibition of the FACS-FRET signal”.

And the “SWAP-70 dimerization in living cells” value (SWAP-70; 293T cells, sodium vanadate activation)?
Its value is “inhibits SWAP-70 dimerization in living cells”.

What about the “production of reactive oxygen species (ROS) by human primary eosinophils” value [1] of the same molecule?
The value was “reduced production”.

What about the “inhibition of neutrophil ROS production” value ([2]; 50 μM B2, fMLP) of the same molecule?
Its value is “clear inhibition of ROS production”.

What about the “inhibition of neutrophil ROS production” value ([2]; 100 μM B2, fMLP) of the same molecule?
Its value is “clear inhibition of ROS production”.

And the “neutrophil ROS production” value ([2]; fMLP, concentration not given in the sentence (FIG. 2))?
The value was “substantially reduced”.

And the “neutrophil NETosis” value [3]?
The value was “substantially reduced”.

And the “toxicity in B lymphocyte culture” value (primary human B cells; 50 μM B2, day 6)?
The value was “some toxicity was observed”.

What about the “IgE production by primary human peripheral blood B lymphocytes” value (primary human B cells; CD40L and IL4, day 6, FIG. 5 (50, 20, 10 μM)) of the same molecule?
The value was “inhibits IgE production”.

And the “toxicity in B lymphocyte culture” value (primary human B cells; lower concentrations than 50 μM (20 and 10 μM), day 6)?
Its value is “not observed”.
